{
  "source": "PubChem BioAssay AID1963427",
  "about": "(Molecular Pharmacology Branch, DTP, NCI, 2024)",
  "test_system": "317291-083-R-J1-PDC complex spheroid growth",
  "test": "Anticancer human tumor 317291-083-R-J1-PDC patient-derived soft tissue sarcoma cell line growth inhibition [Asc]",
  "details": "for IC50: curve of first compound; for viability, T/C: stronger effect = lower value",
  "summary_of_the_method": "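Spheroid model: tumor line + HUVEC + hMSC. Single agents and combinations; top conc. at/near clinical Cmax (10 microM if undetermined), half-log dilutions. DMSO stocks at 800-fold test concentration.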",
  "data": [
    {"compound": "C#Cc1c(F)ccc2cc(O)cc(-c3ncc4c(N5CC6CCC(C5)N6)nc(OCC56CCCN5CC(F)C6)nc4c3F)c12", "note": "(centres undefined) + Cc1c(S(C)(=O)=O)c(-c2cc(F)cc(N3CCN(c4ccc(NS(=O)(=O)c5ccc(NC(CCN6CCC(C(=O)OCCCP(=O)(O)O)CC6)CSc6ccccc6)c(S(=O)(=O)C(F)(F)F)c5)cc4)CC3)c2)c(-c2ccc(Cl)cc2)n1C(C)C;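 note: compound exposure lasted seven days after spheroids formed for three days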;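 for viability, T/C: 100% = DMSO vehicle control wells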", "values": [
      {"measurement": "IC50", "setting": "second compound 0.0316 µM", "result": "> 10000", "unit": "nM"},
      {"measurement": "IC50", "setting": "second compound 0.1 µM", "result": "> 10000", "unit": "nM"},
      {"measurement": "IC50", "setting": "second compound 0.316 µM", "result": "> 10000", "unit": "nM"},
      {"measurement": "IC50", "setting": "second compound 1 µM", "result": "> 10000", "unit": "nM"},
      {"measurement": "IC50", "setting": "second compound 3.16 µM", "result": "> 10000", "unit": "nM"},
      {"measurement": "IC50", "setting": "second compound 10 µM", "result": 9940, "unit": "nM"},
      {"measurement": "viability, T/C", "setting": "second compound 0.0316 µM, first compound 0.0316 µM", "result": 105, "unit": "%"},
      {"measurement": "viability, T/C", "setting": "second compound 0.0316 µM, first compound 0.1 µM", "result": 89, "unit": "%"},
      {"measurement": "viability, T/C", "setting": "second compound 0.0316 µM, first compound 0.316 µM", "result": 102, "unit": "%"},
      {"measurement": "viability, T/C", "setting": "second compound 0.0316 µM, first compound 1 µM", "result": 84.6, "unit": "%"},
      {"measurement": "viability, T/C", "setting": "second compound 0.0316 µM, first compound 3.16 µM", "result": 96.7, "unit": "%"},
      {"measurement": "viability, T/C", "setting": "second compound 0.0316 µM, first compound 10 µM", "result": 68.8, "unit": "%"},
      {"measurement": "viability, T/C", "setting": "second compound 0.1 µM, first compound 0.0316 µM", "result": 86.5, "unit": "%"},
      {"measurement": "viability, T/C", "setting": "second compound 0.1 µM, first compound 0.1 µM", "result": 101, "unit": "%"},
      {"measurement": "viability, T/C", "setting": "second compound 0.1 µM, first compound 0.316 µM", "result": 92.1, "unit": "%"},
      {"measurement": "viability, T/C", "setting": "second compound 0.1 µM, first compound 1 µM", "result": 87.7, "unit": "%"},
      {"measurement": "viability, T/C", "setting": "second compound 0.1 µM, first compound 3.16 µM", "result": 96.7, "unit": "%"},
      {"measurement": "viability, T/C", "setting": "second compound 0.1 µM, first compound 10 µM", "result": 70.1, "unit": "%"},
      {"measurement": "viability, T/C", "setting": "second compound 0.316 µM, first compound 0.0316 µM", "result": 93.9, "unit": "%"},
      {"measurement": "viability, T/C", "setting": "second compound 0.316 µM, first compound 0.1 µM", "result": 87.3, "unit": "%"},
      {"measurement": "viability, T/C", "setting": "second compound 0.316 µM, first compound 0.316 µM", "result": 80.3, "unit": "%"},
      {"measurement": "viability, T/C", "setting": "second compound 0.316 µM, first compound 1 µM", "result": 78.9, "unit": "%"},
      {"measurement": "viability, T/C", "setting": "second compound 0.316 µM, first compound 3.16 µM", "result": 80.3, "unit": "%"},
      {"measurement": "viability, T/C", "setting": "second compound 0.316 µM, first compound 10 µM", "result": 62.5, "unit": "%"},
      {"measurement": "viability, T/C", "setting": "second compound 1 µM, first compound 0.0316 µM", "result": 90.7, "unit": "%"},
      {"measurement": "viability, T/C", "setting": "second compound 1 µM, first compound 0.1 µM", "result": 70.3, "unit": "%"},
      {"measurement": "viability, T/C", "setting": "second compound 1 µM, first compound 0.316 µM", "result": 83.4, "unit": "%"},
      {"measurement": "viability, T/C", "setting": "second compound 1 µM, first compound 1 µM", "result": 67.6, "unit": "%"},
      {"measurement": "viability, T/C", "setting": "second compound 1 µM, first compound 3.16 µM", "result": 74.9, "unit": "%"},
      {"measurement": "viability, T/C", "setting": "second compound 1 µM, first compound 10 µM", "result": 58.4, "unit": "%"},
      {"measurement": "viability, T/C", "setting": "second compound 3.16 µM, first compound 0.0316 µM", "result": 75.5, "unit": "%"},
      {"measurement": "viability, T/C", "setting": "second compound 3.16 µM, first compound 0.1 µM", "result": 67.1, "unit": "%"},
      {"measurement": "viability, T/C", "setting": "second compound 3.16 µM, first compound 0.316 µM", "result": 68.9, "unit": "%"},
      {"measurement": "viability, T/C", "setting": "second compound 3.16 µM, first compound 1 µM", "result": 71.7, "unit": "%"},
      {"measurement": "viability, T/C", "setting": "second compound 3.16 µM, first compound 3.16 µM", "result": 74.3, "unit": "%"},
      {"measurement": "viability, T/C", "setting": "second compound 3.16 µM, first compound 10 µM", "result": 53.2, "unit": "%"},
      {"measurement": "viability, T/C", "setting": "second compound 10 µM, first compound 0.0316 µM", "result": 79.9, "unit": "%"},
      {"measurement": "viability, T/C", "setting": "second compound 10 µM, first compound 0.1 µM", "result": 101, "unit": "%"},
      {"measurement": "viability, T/C", "setting": "second compound 10 µM, first compound 0.316 µM", "result": 89.2, "unit": "%"},
      {"measurement": "viability, T/C", "setting": "second compound 10 µM, first compound 1 µM", "result": 76.9, "unit": "%"},
      {"measurement": "viability, T/C", "setting": "second compound 10 µM, first compound 3.16 µM", "result": 80.5, "unit": "%"},
      {"measurement": "viability, T/C", "setting": "second compound 10 µM, first compound 10 µM", "result": 49.1, "unit": "%"}
    ]},
    {"compound": "Cc1nc(N2CCC3(CC2)COC(C)C3N)c(CO)nc1Sc1ccnc(N)c1Cl", "note": "(centres undefined) + Cc1c(S(C)(=O)=O)c(-c2cc(F)cc(N3CCN(c4ccc(NS(=O)(=O)c5ccc(NC(CCN6CCC(C(=O)OCCCP(=O)(O)O)CC6)CSc6ccccc6)c(S(=O)(=O)C(F)(F)F)c5)cc4)CC3)c2)c(-c2ccc(Cl)cc2)n1C(C)C", "values": [
      {"measurement": "IC50", "setting": "second compound 0.0316 µM", "result": 1960, "unit": "nM"},
      {"measurement": "IC50", "setting": "second compound 0.1 µM", "result": 2540, "unit": "nM"},
      {"measurement": "IC50", "setting": "second compound 0.316 µM", "result": 946, "unit": "nM"},
      {"measurement": "IC50", "setting": "second compound 1 µM", "result": 600, "unit": "nM"},
      {"measurement": "IC50", "setting": "second compound 3.16 µM", "result": 469, "unit": "nM"},
      {"measurement": "IC50", "setting": "second compound 10 µM", "result": 992, "unit": "nM"},
      {"measurement": "viability, T/C", "setting": "second compound 0.0316 µM, first compound 0.00949 µM", "result": 96.4, "unit": "%"},
      {"measurement": "viability, T/C", "setting": "second compound 0.0316 µM, first compound 0.03 µM", "result": 77.5, "unit": "%"},
      {"measurement": "viability, T/C", "setting": "second compound 0.0316 µM, first compound 0.0949 µM", "result": 98.4, "unit": "%"},
      {"measurement": "viability, T/C", "setting": "second compound 0.0316 µM, first compound 0.3 µM", "result": 82.8, "unit": "%"},
      {"measurement": "viability, T/C", "setting": "second compound 0.0316 µM, first compound 0.949 µM", "result": 61.3, "unit": "%"},
      {"measurement": "viability, T/C", "setting": "second compound 0.0316 µM, first compound 3 µM", "result": 43.5, "unit": "%"},
      {"measurement": "viability, T/C", "setting": "second compound 0.1 µM, first compound 0.00949 µM", "result": 98.1, "unit": "%"},
      {"measurement": "viability, T/C", "setting": "second compound 0.1 µM, first compound 0.03 µM", "result": 92.1, "unit": "%"},
      {"measurement": "viability, T/C", "setting": "second compound 0.1 µM, first compound 0.0949 µM", "result": 81.9, "unit": "%"},
      {"measurement": "viability, T/C", "setting": "second compound 0.1 µM, first compound 0.3 µM", "result": 69.8, "unit": "%"},
      {"measurement": "viability, T/C", "setting": "second compound 0.1 µM, first compound 0.949 µM", "result": 51.3, "unit": "%"},
      {"measurement": "viability, T/C", "setting": "second compound 0.1 µM, first compound 3 µM", "result": 51, "unit": "%"},
      {"measurement": "viability, T/C", "setting": "second compound 0.316 µM, first compound 0.00949 µM", "result": 88.3, "unit": "%"},
      {"measurement": "viability, T/C", "setting": "second compound 0.316 µM, first compound 0.03 µM", "result": 91.3, "unit": "%"},
      {"measurement": "viability, T/C", "setting": "second compound 0.316 µM, first compound 0.0949 µM", "result": 74.4, "unit": "%"},
      {"measurement": "viability, T/C", "setting": "second compound 0.316 µM, first compound 0.3 µM", "result": 63.9, "unit": "%"},
      {"measurement": "viability, T/C", "setting": "second compound 0.316 µM, first compound 0.949 µM", "result": 52.2, "unit": "%"},
      {"measurement": "viability, T/C", "setting": "second compound 0.316 µM, first compound 3 µM", "result": 29.9, "unit": "%"},
      {"measurement": "viability, T/C", "setting": "second compound 1 µM, first compound 0.00949 µM", "result": 93.7, "unit": "%"},
      {"measurement": "viability, T/C", "setting": "second compound 1 µM, first compound 0.03 µM", "result": 73.2, "unit": "%"},
      {"measurement": "viability, T/C", "setting": "second compound 1 µM, first compound 0.0949 µM", "result": 68.8, "unit": "%"},
      {"measurement": "viability, T/C", "setting": "second compound 1 µM, first compound 0.3 µM", "result": 63.1, "unit": "%"},
      {"measurement": "viability, T/C", "setting": "second compound 1 µM, first compound 0.949 µM", "result": 39.2, "unit": "%"},
      {"measurement": "viability, T/C", "setting": "second compound 1 µM, first compound 3 µM", "result": 37.9, "unit": "%"},
      {"measurement": "viability, T/C", "setting": "second compound 3.16 µM, first compound 0.00949 µM", "result": 86.5, "unit": "%"},
      {"measurement": "viability, T/C", "setting": "second compound 3.16 µM, first compound 0.03 µM", "result": 69.8, "unit": "%"},
      {"measurement": "viability, T/C", "setting": "second compound 3.16 µM, first compound 0.0949 µM", "result": 66.2, "unit": "%"},
      {"measurement": "viability, T/C", "setting": "second compound 3.16 µM, first compound 0.3 µM", "result": 58.6, "unit": "%"},
      {"measurement": "viability, T/C", "setting": "second compound 3.16 µM, first compound 0.949 µM", "result": 42.2, "unit": "%"},
      {"measurement": "viability, T/C", "setting": "second compound 3.16 µM, first compound 3 µM", "result": 20.4, "unit": "%"},
      {"measurement": "viability, T/C", "setting": "second compound 10 µM, first compound 0.00949 µM", "result": 86.5, "unit": "%"},
      {"measurement": "viability, T/C", "setting": "second compound 10 µM, first compound 0.03 µM", "result": 87.3, "unit": "%"},
      {"measurement": "viability, T/C", "setting": "second compound 10 µM, first compound 0.0949 µM", "result": 81.7, "unit": "%"},
      {"measurement": "viability, T/C", "setting": "second compound 10 µM, first compound 0.3 µM", "result": 67.5, "unit": "%"},
      {"measurement": "viability, T/C", "setting": "second compound 10 µM, first compound 0.949 µM", "result": 52, "unit": "%"},
      {"measurement": "viability, T/C", "setting": "second compound 10 µM, first compound 3 µM", "result": 26.7, "unit": "%"}
    ]}
  ]
}
